In patent publication US4599327A, “Dibenzo[bd]pyran derivatives, process for the preparation thereof and pharmaceutical compositions containing same” (priority 1982, dated 1986):
Structures can show the parent of a compound that is named as a salt. Where two headings read alike, the source gives them in different places.

Assays:
[1] = cited from earlier work
[2] = literature, cited from earlier work
[3] = literature, Wilson et al.; cited from earlier work
[4] = p.o.; U.S. Pat. No. 3,507,885 compound; cited from earlier work
[5] = hot-plate test using rats (analgesic activity); assay type: in vivo; settings: for analgesic activity: suspended with 1% methyl cellulose
[6] = narcosis potentiating activity (35 mg/kg of phenobarbital in rats); assay type: in vivo; settings: i.v.; narcosis time of 35 mg/kg of phenobarbital in rats lengthened by ten times (route printed for CKN-30 complex and morphine)
Method: The narcosis time of 35 mg/kg of phenobarbital in rats is lengthened by ten times by using 0.1-0.25 mg/kg i.v. CKN-30 complex or 0.05 mg/kg of CKN-49 complex. In order to achieve similar activity more than 1 mg/kg of i.v. morphine was needed.

[7] = Wilson et al., J. Med. Chem. 19, 1165 (1976)

Structure (SMILES): CCCCCc1cc(O)c2c(c1)OC(C)(C)C1CCC(O)CC21 (stereo not shown)
- ED50 (tail-flick) ([1]; literature, B. R. Martin et al. (1977), levorotatory form): 1.71 mg/kg
- ED50 (hot plate) [2, 7]: 1.6 mg/kg

Structure (SMILES): CCCCCc1cc(O)c2c(c1)OC(C)(C)[C@@H]1CC[C@@H](O)C[C@@H]21 (relative stereo) [9-nor-9β-hydroxy-hexahydrocannabinol]
- ED50 (hot plate) [2, 7]: 2.9 mg/kg
- ED50 (hot plate) ([2]; aqueous suspension containing Emulphor emulsifying agent and ethanol): 2.9 mg/kg
- analgesic strength [3]: as strong as morphine

Structure (SMILES): CCCCCCC(C)(C)c1cc(O)c2c(c1)OC(C)(C)[C@@H]1CC[C@@H](O)C[C@@H]21 (relative stereo) [(±)-1,9β-dihydroxy-6,6-dimethyl-3-(1,1-dimethyl-1-heptyl)-6aβ,7,8,9,10,10aα-hexahydro-6H-dibenzo(bd)-pyrane]
- ED50 (tail-flick) ([1]; p.o., U.S. Pat. No. 3,507,885 compound): 0.1 to 5 mg/kg
- ED50 (mouse writhing) [4]: 1.25 mg/kg

Structure (SMILES): COCCCC(C)c1cc(O)c2c(c1)OC(C)(C)[C@@H]1CC[C@@H](O)C[C@@H]21 (relative stereo) [CKN-30, (±)-1,9β-dihydroxy-6aβ,7,8,9,10,10aα-hexahydro-6,6-dimethyl-3-[(2RS)-5-methoxy-2-pentyl]-6H-dibenzo[bd]pyrane]
- analgesic activity [5]: moderate analgesic activity

Structure (SMILES): CCOCCCC(C)c1cc(O)c2c(c1)OC(C)(C)[C@@H]1CC[C@@H](O)C[C@@H]21 (relative stereo) [CKN-49, (±)-1,9β-dihydroxy-6aβ,7,8,9,10,10aα-hexahydro-6,6-dimethyl-3-[(2RS)-5-ethoxy-2-pentyl]-6H-dibenzo[bd]pyrane]
- analgesic activity [5]: moderate analgesic activity

Structure (SMILES): CN1CC[C@]23c4c5ccc(O)c4O[C@H]2[C@@H](O)C=C[C@H]3[C@H]1C5 [morphine. HCl]
- ED50 (hot plate) [2, 7]: 1.2 mg/kg

Structure (SMILES): CN1CC[C@]23c4c5ccc(O)c4O[C@H]2[C@@H](O)C=C[C@H]3[C@H]1C5 [morphine]
- dose lengthening the narcosis time by ten times [6]: more than 1 mg/kg
- ED50 ([5]; i.v.): 3.6 mg/kg
- ED50 ([5]; s.c.): 4.6 mg/kg
